Test results from patent publication US7168937B2, “Method for the enzymatic resolution of the racemates of aminomethyl-aryl-cyclohexanol derivatives” (Gruenenthal GmbH, priority 2000, dated 2007).
Like-named read-outs stand apart in the source and are kept apart here.

Tests used:
Format in all cases: physicochemical
[1] = logP and logD values water/octanol; conditions: for logD: pH 7.4, water/octanol; for logP: water/octanol
[2] = logP and logD values water/cyclohexane; conditions: for ΔlogP value at pH 7.4: difference of logP water/octanol and water/cyclohexane; for ΔlogD value at pH 7.4: pH 7.4, difference of logD water/octanol and water/cyclohexane
[3] = pKa values of the compounds 1 and 2
[4] = pH 7.4, water/cyclohexane, read-out: logD value at pH 7.4 water/cyclohexane
[5] = water/cyclohexane, read-out: logP value: water/cyclohexane

| SMILES | logD [1] | logP [1] | ΔlogP value at pH 7.4 [2] | ΔlogD value at pH 7.4 [2] | logD hydrocarbon water [2, 4] | logD hydrocarbon water [2, 5] | pKa [3] |
| --- | --- | --- | --- | --- | --- | --- | --- |
| CCCC(=O)O[C@H]1CC[C@](O)(c2cccc(OC)c2)[C@@H](CN(C)C)C1 (racemic) [Compound 1, (1SR,3RS,4RS)-butyric acid 3-dimethylaminomethyl-4-hydroxy-4-(3-methoxy-phenyl)-cyclohexyl ester] | 1.48 | 2.9 | 0.538 | 0.538 | 0.946 | 2.36 | 8.8 |
| COc1cccc([C@@]2(O)CC[C@H](O)C[C@@H]2CN(C)C)c1 (racemic) [Compound 2, (1RS,2RS,4SR)-2-dimethylaminomethyl-1-(3-methoxy-phenyl)-cyclohexane-1,4-diol] | -0.564 | 1.1 | 1.733 | 1.733 | -2.3 | -0.632 | 9.05 |
